From publication PMC8347709 (International Journal of Molecular Sciences, 2021) come the findings set out here.

“And” between values parts separate entries of the source, which are not always exact repeats. Equal values may be shown once.

Data set [1] in a line: quantification of radiometabolites in vivo. As to conditions: female CD-1 mice, 30 min p.i. The protocol: Radiochemical yield, radiochemical purity and analyses of plasma and brain samples were assessed via reversed-phase HPLC (RP-HPLC) in gradient mode (0–10 min: 10% MeCN/20 mM NH4OAcaq., 10–30 min: 10%→90% MeCN/20 mM NH4OAcaq., 30–35 min: 90% MeCN/20 mM NH4OAcaq., 35–36 min: 90%→10% MeCN/20 mM NH4OAcaq. 36–45 min: 10% MeCN/20 mM NH4OAcaq.).
At 30 min p.i., the animals were anaesthetised and blood was withdrawn by retrobulbar bleeding using glass capillaries. Immediately afterwards, the animals were euthanised by cervical dislocation, and released urine was sampled. Blood plasma was obtained from the whole blood sample by centrifugation (2 min, 8000 rpm, room temperature). In addition, the brain and spleen were isolated and homogenised in 1 mL demineralised water on ice (1000 rpm, 10 strokes; glass vessel, PTFE plunger; Potter S, B. Braun Biotech International, Göttingen, Germany).
The samples were further processed for subsequent radio-chromatographic analyses. Two consecutive extractions were performed as duplicates for plasma and brain determinations. Plasma, brain and spleen samples were added to an ice-cold MeOH/H2O mixture (9:1, v/v). The samples were vortexed for 3 min, incubated on ice for 5 min and centrifuged at 10,000 rpm for 5 min. Supernatants were collected, and the precipitates were re-dissolved in 100 µL of extraction solvent, and the extraction procedure was repeated. The activities of supernatants and precipitates were measured in a γ-counter (1480 WIZARD, Fa. Perkin Elmer, Turku, Finland), and the extraction efficiencies were calculated as the ratio of radioactivity in the supernatant to the radioactivity in the original sample (supernatant + precipitate). The supernatants from both extractions were combined, concentrated at 70 °C under argon stream up to a remaining volume of 100 µL, and subsequently analysed by analytical radio-HPLC with a gradient system (see quality control section).

The target of data set [2] is T1, CB2R in rat spleen tissue (Rattus norvegicus, UniProt Q9QZN9).
T1 construct: from tissue; host or cells: rat spleen cryosections (female SPRD rat)
T1 sequence (Q9QZN9 1-360): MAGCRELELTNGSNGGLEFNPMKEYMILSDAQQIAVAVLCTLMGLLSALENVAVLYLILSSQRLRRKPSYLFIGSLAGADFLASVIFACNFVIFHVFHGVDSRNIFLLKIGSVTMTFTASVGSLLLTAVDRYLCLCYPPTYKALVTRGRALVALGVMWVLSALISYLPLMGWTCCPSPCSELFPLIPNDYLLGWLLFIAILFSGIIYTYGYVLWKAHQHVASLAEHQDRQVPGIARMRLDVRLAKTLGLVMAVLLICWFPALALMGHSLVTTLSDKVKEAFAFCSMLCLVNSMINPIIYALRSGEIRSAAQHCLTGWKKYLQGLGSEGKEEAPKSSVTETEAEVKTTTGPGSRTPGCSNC
The data set can be described thus: in vitro autoradiography on rat spleen cryosections. The conditions noted are these: 10 µm cryosections, female SPRD rats; nonspecific binding with GW405833. The protocol: The in vitro autoradiographic experiments were performed according to a previously published protocol. […] Afterwards, the samples were washed, exposed to imaging plates (Fuji Photo Film, Co. Ltd., Tokyo, Japan), and eventually scanned using a HD-CR 35 scanner (raytest Isotopenmessgeraete GmbH, Straubenhardt, Germany). The scan data were visualised and processed by computer-assisted microdensitometry (Aida version 2.31, raytest Isotopenmessgeräte GmbH, Straubenhardt, Germany).
Figure S1. […] Cryosections (10 µm;
(nonspecific binding; (B) for 60 min. […]

Regarding `C[C@H]1CC[C@@H](NC(=O)c2cc3cccnc3n(CCCC[18F])c2=O)CC1` [[^18F]LU14], in data set [1], the “intact tracer in spleen (of the total activity detected)” value amounted to 50 ± 10%; the “intact tracer in the brain” value is 82 ± 5% and > 80% and 82%. In addition, the “unchanged tracer in plasma” value in data set [1] (radio-HPLC) is 17 ± 2% and 17%. Besides, the “specific binding in spleen autoradiography” value in data set [2] is “no or low specific binding”.
